# Test results as given in patent US9012398B2, “Acylated exendin-4 compounds” (priority 2006, dated 2015).
# Where two headings read alike, the source gives them in different places. Starred links: 1 amine or outer side, 2 acyl side, 3 side chain; linkers in the order of their positions; H or OH if unused. Residues, ends and D or L forms follow the SMILES beside them. Groups on a side chain read outwards from the residue. *: point of attachment. C18 diacid = O=C(O)CCCCCCCCCCCCCCCCC(=O)*; γGlu = O=C(O)[C@H](CCC(=O)[*:2])N[*:1]; Stearoyl = CCCCCCCCCCCCCCCCCC(=O)*; Palmitoyl = CCCCCCCCCCCCCCCC(=O)*; AEEA = NCCOCCOCC(=O)O
# Tests used:
# [1] = system: db/db mice; test: Pharmacodynamic study using db/db mice (blood glucose after subcutaneous dosing); format: in vivo; details: 30 nmol/kg subcutaneous
# Experimental: The efficacy and duration of action were measured after dosing of 30 nmol/kg to db/db mice. Male db/db mice were shipped from Taconic, Denmark at the age of 8-10 weeks. From the time of arrival, the mice were housed under standard conditions but at 24° C. The mice were kept 10 per cage until experimentation with free access to standard chow (Altromin, Brogaarden APS., Denmark) and tap water at a normal day: light cycle (light on at 6 am). […] After this, the mice were euthanized.
# After an acclimatisation period of 1 week, the blood glucose was measured by sampling from the tail tip capillary. In brief, 5 μl blood was sampled in heparinised glass capillary tubes and immediately suspended in 250 μl EBIO buffer solution (Eppendorf, Germany) in an 1.5 ml Eppendorf tube. The blood glucose concentration was measured by the glucose oxidase method at the EBIO Plus Auto analyser (Eppendorf, Germany).
# The cut of value for blood glucose was 10 mM. When evaluating the mice, it was considered essential, that all 42 mice entering the experiment had blood glucose values above 10 mM, but also that the inter-mice variance was small. Therefore, if many mice were not severely diabetic, whereas some were, the start up of experiments was postponed one week and new basal blood glucose measurements were made.
# Based on the basal blood glucose values, the mice were allocated to 7 groups of n=6 with matching group mean blood glucose values.
# On the day of testing the basal blood glucose morning values were assessed as described above and the basal body weight of each mouse was assessed. A time 0, the compound was dosed subcutaneously in the scruff of the neck (dosing volume app. 300 μl/50 g mouse).
# The blood glucose values were followed up to 48 hours (time 1, 3, 6, 24 and 48 h) and the terminal body weight was assessed.
# All data were entered into Graphpad Prism where mean blood glucose and mean delta body weights were calculated.
# [2] = molecular target: T1, human GLP-1 receptor (Homo sapiens, UniProt P43220); test: Functional receptor assay: cAMP formation in plasma membranes of BHK cells expressing the cloned human GLP-1 receptor (GLP1cAMPma); format: biochemical
# T1 construct: expressed in transfected cells; host or cells: BHK cells, clone BHK-467-12A; plasma membrane preparation
# T1 sequence (P43220 24-463): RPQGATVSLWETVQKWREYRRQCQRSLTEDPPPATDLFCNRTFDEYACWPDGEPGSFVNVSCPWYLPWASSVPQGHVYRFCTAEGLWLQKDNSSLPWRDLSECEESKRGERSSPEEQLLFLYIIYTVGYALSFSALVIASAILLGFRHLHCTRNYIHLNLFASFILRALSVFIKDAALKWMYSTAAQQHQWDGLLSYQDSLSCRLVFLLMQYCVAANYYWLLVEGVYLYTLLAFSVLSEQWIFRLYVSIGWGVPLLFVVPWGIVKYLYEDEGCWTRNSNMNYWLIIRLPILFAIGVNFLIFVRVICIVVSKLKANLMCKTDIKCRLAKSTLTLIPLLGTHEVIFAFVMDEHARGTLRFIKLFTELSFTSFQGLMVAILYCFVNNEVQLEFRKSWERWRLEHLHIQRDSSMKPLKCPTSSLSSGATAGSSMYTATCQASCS
# In short: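 Membranes from BHK cells expressing human GLP-1 receptor (6 μg) were incubated 3 h at room temperature in Tris/HEPES buffer pH 7.4 with 1 mM ATP, 1 μM GTP and 0.5 mM IBMX. cAMP was quantified by AlphaScreen competition with biotinyl-cAMP. EC50 came from a four-parameter logistic fit.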
# [3] = Chemical stability of solubilised peptide at 40° C., impurities monitored by RP-HPLC/UPLC; format: physicochemical; details: 2.5 weeks, 100 nmol peptide in 1 ml phosphate buffered saline, pH 7.4
# Experimental: The chemical stability of solubilised acylated exendin-4 compounds were monitored by RP-HPLC following incubation at […]
# The formation of exendin analogue related impurities relative to control samples stored in the freezer were monitored with a Waters UPLC system. Samples were applied to Acquity UPLC BEH C18 (1.7 μm) 2.1×50 mm column and eluted at a flow rate of 0.9 ml/min with linear stepwise gradients of acetonitrile in 0.1% trifluoroacetic acid (from 5 to 100% acetonitrile for 10 min, and from 100 to 5% acetonitrile for 1 min). The column was heated to 30 C and detection was performed at 214 nm.
# [4] = cAMP, membranes with human GLP-1 receptor, mean value, read-out: GLP1cAMPma (3693) [EC50 (nM)] Mean Value
Compound,"Delta AUC for blood glucose after 30 nmol/kg in db/db mice, 48 hours [1]",EC50 [2] [nM],Formation rate of peptide related impurities at 40° C. [3] [%/week],"EC50 [2, 4] [nM]"
"CCCCCCCCCCCCCCCCCC(=O)NCCOCCOCC(=O)NCCOCCOCC(=O)NCCOCCOCC(=O)NCCCC[C@H](NC(=O)[C@@H](NC(=O)[C@H](C)NC(=O)[C@H](CCC(=O)O)NC(=O)[C@H](CCC(=O)O)NC(=O)[C@H](CCC(=O)O)NC(=O)[C@H](CC(C)C)NC(=O)[C@H](CCC(N)=O)NC(=O)[C@H](CCCNC(=N)N)NC(=O)[C@H](CO)NC(=O)[C@H](CC(C)C)NC(=O)[C@H](CC(=O)O)NC(=O)[C@H](CO)NC(=O)[C@@H](NC(=O)[C@H](Cc1ccccc1)NC(=O)[C@@H](NC(=O)CNC(=O)[C@H](CCC(=O)O)NC(=O)CNC(=O)[C@@H](N)Cc1c[nH]cn1)[C@@H](C)O)[C@@H](C)O)C(C)C)C(=O)N[C@@H](CC(C)C)C(=O)N[C@@H](Cc1ccccc1)C(=O)N[C@H](C(=O)N[C@@H](CCC(=O)O)C(=O)N[C@@H](Cc1c[nH]c2ccccc12)C(=O)N[C@@H](CC(C)C)C(=O)N[C@@H](CCCNC(=N)N)C(=O)N[C@@H](CCCNC(=N)N)C(=O)NCC(=O)NCC(=O)N1CCC[C@H]1C(=O)N[C@@H](CO)C(=O)N[C@@H](CO)C(=O)NCC(=O)N[C@@H](C)C(=O)N1CCC[C@H]1C(=O)N1CCC[C@H]1C(=O)N1CCC[C@H]1C(=O)N[C@@H](CO)C(N)=O)[C@@H](C)CC [Example 5, N-ε^20-(2-(2-(2-(2-(2-(2-(2-(2-(2-(Octadecanoylamino)ethoxy)ethoxy)acetylamino)ethoxy)ethoxy)acetyl-amino)ethoxy)ethoxy)acety))[Arg^12,27,28,Leu^14,Lys^20 Exendin-4(1-39)amide] (H-HGEGTFTSDLSRQLEEEAVK([AEEA-AEEA-AEEA-Stearoyl])LFIEWLRRGGPSSGAPPPS-NH2; N-terminus assumed)","−410 ± 111, *** mM × hour",0.007,–,–
"CC[C@H](C)[C@H](NC(=O)[C@H](Cc1ccccc1)NC(=O)[C@H](CC(C)C)NC(=O)[C@H](CCCNC(=N)N)NC(=O)[C@@H](NC(=O)[C@H](C)NC(=O)[C@H](CCC(=O)O)NC(=O)[C@H](CCC(=O)O)NC(=O)[C@H](CCC(=O)O)NC(=O)[C@H](CC(C)C)NC(=O)[C@H](CCC(N)=O)NC(=O)[C@H](CCCNC(=N)N)NC(=O)[C@H](CO)NC(=O)[C@H](CC(C)C)NC(=O)[C@H](CC(=O)O)NC(=O)[C@H](CO)NC(=O)[C@@H](NC(=O)[C@H](Cc1ccccc1)NC(=O)[C@@H](NC(=O)CNC(=O)[C@H](CCC(=O)O)NC(=O)CNC(=O)[C@@H](N)Cc1c[nH]cn1)[C@@H](C)O)[C@@H](C)O)C(C)C)C(=O)N[C@@H](CCC(=O)O)C(=O)N[C@@H](Cc1c[nH]c2ccccc12)C(=O)N[C@@H](CC(C)C)C(=O)N[C@@H](CCCNC(=N)N)C(=O)N[C@@H](CC(N)=O)C(=O)NCC(=O)NCC(=O)N1CCC[C@H]1C(=O)N[C@@H](CO)C(=O)N[C@@H](CO)C(=O)N[C@@H](CCCCNC(=O)COCCOCCNC(=O)CCCCCCCCCCCCCCCCC(=O)O)C(=O)N[C@@H](C)C(=O)N1CCC[C@H]1C(=O)N1CCC[C@H]1C(=O)N1CCC[C@H]1C(=O)N[C@@H](CO)C(N)=O [Example 8, N-ε^34-(2-(2-(2-(17-carboxyheptadecanoylamino)ethoxy)ethoxy)acetyl) [Leu^14,Arg^12,27,Lys^34]Exendin-4(1-39)amide] (H-HGEGTFTSDLSRQLEEEAVRLFIEWLRNGGPSSK([AEEA-C18 diacid])APPPS-NH2)","−500 ± 122, *** mM × hour",0.44,–,–
CCCCCCCCCCCCCCCC(=O)N[C@@H](CCC(=O)NCCOCCOCC(=O)NCCOCCOCC(=O)NCCCC[C@H](NC(=O)[C@H](CCC(N)=O)NC(=O)[C@H](CCCNC(=N)N)NC(=O)[C@H](CO)NC(=O)[C@H](CC(C)C)NC(=O)[C@H](CC(=O)O)NC(=O)[C@H](CO)NC(=O)[C@@H](NC(=O)[C@H](Cc1ccccc1)NC(=O)[C@@H](NC(=O)CNC(=O)[C@H](CCC(=O)O)NC(=O)CNC(=O)[C@@H](N)Cc1c[nH]cn1)[C@@H](C)O)[C@@H](C)O)C(=O)N[C@@H](CCC(=O)O)C(=O)N[C@@H](CCC(=O)O)C(=O)N[C@@H](CCC(=O)O)C(=O)N[C@@H](C)C(=O)N[C@H](C(=O)N[C@@H](CCCNC(=N)N)C(=O)N[C@@H](CC(C)C)C(=O)N[C@@H](Cc1ccccc1)C(=O)N[C@H](C(=O)N[C@@H](CCC(=O)O)C(=O)N[C@@H](Cc1c[nH]c2ccccc12)C(=O)N[C@@H](CC(C)C)C(=O)N[C@H](C(=O)N[C@@H](CCCNC(=N)N)C(=O)NCC(=O)NCC(=O)N1CCC[C@H]1C(=O)N[C@@H](CO)C(=O)N[C@@H](CO)C(=O)NCC(=O)N[C@@H](C)C(=O)N1CCC[C@H]1C(=O)N1CCC[C@H]1C(=O)N1CCC[C@H]1C(=O)N[C@@H](CO)C(N)=O)C(C)C)[C@@H](C)CC)C(C)C)C(=O)O [Example 25] (H-HGEGTFTSDLSRQK([AEEA-AEEA-γGlu-Palmitoyl])EEEAVRLFIEWLVRGGPSSGAPPPS-NH2; N-terminus assumed),–,–,3.0,0.037
"CCCCCCCCCCCCCCCCCC(=O)NCCOCCOCC(=O)NCCOCCOCC(=O)NCCOCCOCC(=O)NCCCC[C@H](NC(=O)[C@H](CCC(N)=O)NC(=O)[C@H](CCCNC(=N)N)NC(=O)[C@H](CO)NC(=O)[C@H](CC(C)C)NC(=O)[C@H](CC(=O)O)NC(=O)[C@H](CO)NC(=O)[C@@H](NC(=O)[C@H](Cc1ccccc1)NC(=O)[C@@H](NC(=O)CNC(=O)[C@H](CCC(=O)O)NC(=O)CNC(=O)[C@@H](N)Cc1c[nH]cn1)[C@@H](C)O)[C@@H](C)O)C(=O)N[C@@H](CCC(=O)O)C(=O)N[C@@H](CCC(=O)O)C(=O)N[C@@H](CCC(=O)O)C(=O)N[C@@H](C)C(=O)N[C@H](C(=O)N[C@@H](CCCNC(=N)N)C(=O)N[C@@H](CC(C)C)C(=O)N[C@@H](Cc1ccccc1)C(=O)N[C@H](C(=O)N[C@@H](CCC(=O)O)C(=O)N[C@@H](Cc1c[nH]c2ccccc12)C(=O)N[C@@H](CC(C)C)C(=O)N[C@H](C(=O)N[C@@H](CCCNC(=N)N)C(=O)NCC(=O)NCC(=O)N1CCC[C@H]1C(=O)N[C@@H](CO)C(=O)N[C@@H](CO)C(=O)NCC(=O)N[C@@H](C)C(=O)N1CCC[C@H]1C(=O)N1CCC[C@H]1C(=O)N1CCC[C@H]1C(=O)N[C@@H](CO)C(N)=O)C(C)C)[C@@H](C)CC)C(C)C [Example 26, N-ε^14-(2-(2-(2-(2-(2-(2-(2-(2-(2-(Octadecanoylamino)ethoxy)ethoxy)acetylamino)ethoxy)ethoxy)acetyl-amino)ethoxy)ethoxy)acetyl)[Arg^12,Lys^14,Val^27,Arg^28]Exendin-4-(1-39)-amide] (H-HGEGTFTSDLSRQK([AEEA-AEEA-AEEA-Stearoyl])EEEAVRLFIEWLVRGGPSSGAPPPS-NH2; N-terminus assumed)",–,–,2.0,0.088
CCCCCCCCCCCCCCCCCC(=O)N[C@@H](CCC(=O)NCCOCCOCC(=O)NCCOCCOCC(=O)NCCCC[C@H](NC(=O)[C@H](CCC(N)=O)NC(=O)[C@H](CCCNC(=N)N)NC(=O)[C@H](CO)NC(=O)[C@H](CC(C)C)NC(=O)[C@H](CC(=O)O)NC(=O)[C@H](CO)NC(=O)[C@@H](NC(=O)[C@H](Cc1ccccc1)NC(=O)[C@@H](NC(=O)CNC(=O)[C@H](CCC(=O)O)NC(=O)CNC(=O)[C@@H](N)Cc1c[nH]cn1)[C@@H](C)O)[C@@H](C)O)C(=O)N[C@@H](CCC(=O)O)C(=O)N[C@@H](CCC(=O)O)C(=O)N[C@@H](CCC(=O)O)C(=O)N[C@@H](C)C(=O)N[C@H](C(=O)N[C@@H](CCCNC(=N)N)C(=O)N[C@@H](CC(C)C)C(=O)N[C@@H](Cc1ccccc1)C(=O)N[C@H](C(=O)N[C@@H](CCC(=O)O)C(=O)N[C@@H](Cc1c[nH]c2ccccc12)C(=O)N[C@@H](CC(C)C)C(=O)N[C@H](C(=O)N[C@@H](CCCNC(=N)N)C(=O)NCC(=O)NCC(=O)N1CCC[C@H]1C(=O)N[C@@H](CO)C(=O)N[C@@H](CO)C(=O)NCC(=O)N[C@@H](C)C(=O)N1CCC[C@H]1C(=O)N1CCC[C@H]1C(=O)N1CCC[C@H]1C(=O)N[C@@H](CO)C(N)=O)C(C)C)[C@@H](C)CC)C(C)C)C(=O)O [Example 29] (H-HGEGTFTSDLSRQK([AEEA-AEEA-γGlu-Stearoyl])EEEAVRLFIEWLVRGGPSSGAPPPS-NH2; N-terminus assumed),–,–,2.0,0.059
